Key:
[1] = tested on: hK4 intracellular levels in OVCAR-3; assay: Western blot and densitometry of hK4 intracellular levels in OVCAR-3 cells (oestrogen regulation); assay type: cell-based, human
Description: Normal ovary and ovarian tumour samples were obtained at surgery from women who underwent laparotomy for benign and malignant conditions in the Department of Obstetrics and Gynaecology at the Royal Women's Hospitals and Monash Medical Centre. Ethics approval was obtained from the respective institutional Ethics Committees and informed consent was obtained from all patients. Epithelial cells from normal, benign and malignant ovaries were isolated from some of these tissue samples and the primary cultured cells were grown in M199 (Sigma, St. Louis, Mo., USA) and MCDB 105 (Sigma) media supplemented with 10% FCS and 10 ng/mL human epidermal growth factor (Boehringer Mannheim, Germany) (17). The ovarian cancer cell lines, that were used in this study, were derived from late stage serous carcinomas with well (PEO14 and OAW42), moderate (SKOV-3 and OVCAR-3) or poor (JAM, CI-80-13S, PEO1 and PEO4) differentiation. SKOV-3 and OVCAR-3 were from American Type Culture Collection, and the remainder have been described previously (18, 19). These cell lines were grown in RPMI (Life Technologies, Inc., Gaithersburg. MD, USA) supplemented with 10% FCS. For the oestrogen regulation study, OVCAR-3 cells were grown to 50% confluency. […]

[2] = tested on: K4 protein in the KLE cell line; assay: Western analysis of K4 protein levels in KLE cells after steroid treatment; assay type: cell-based, human; settings: KLE endometrial cancer cell line, 10 nmol/L steroid, 48 h, 200 μg intracellular protein
Description: The endometrial cancer cell lines, Ishikawa (well differentiated), HEC1A, HEC1B, RL95-2 (moderately differentiated) and KLE (poorly differentiated) and the prostate cancer cell line LNCaP, used for a control, were obtained from the American Type Culture Collection, Rockville, Md. Prostate and kidney control tissue was obtained from Royal Brisbane Hospital and Princess Alexandra Hospital respectively. All cell lines were cultured in DMEM (Life Technologies, Rockville, Md.) with 10% FCS, 50 U/mL Penicillin G and 50 μg/mL Streptomycin (CSL Biosciences, Melbourne, Australia) at 37 C and 5% CO2. The regulation studies were performed in triplicate in the KLE cell line using phenol red and FCS-free media. After 24 h, fresh media was supplemented with 10 nmol/L 17β-estradiol or progesterone, (Sigma Chemical Company, St Louis, Mo.) and the cells were maintained for 48 h with these steroids. In addition, […] progesterone was added to one group of oestrogen-treated cells after 24 h. […] Detection was determined using X-ray film and visualisation of the chemiluminescence signal. Fold changes in the level of signal were assessed using the Hewlett Packard Scan Jet IICX and ImagQuant™ 4.21A software (Molecular Dynamics, Amersham)

SMILES	effect on intracellular hK4 levels (densitometry of Western blot) ([1]; OVCAR-3, 100 nM, over 30 hrs)	up-regulation of hK4 intracellular levels ([1]; OVCAR-3 ovarian carcinoma cell line, 100 nM, 8-30 hr, time dependent)	levels of K4 protein elevated compared to the control [2]
C[C@]12CC[C@@H]3c4ccc(O)cc4CC[C@H]3[C@@H]1CC[C@@H]2O [estradiol, 17β-estradiol]	up-regulation	1.5-4 fold	16 fold
CC(=O)[C@H]1CC[C@H]2[C@@H]3CCC4=CC(=O)CC[C@]4(C)[C@H]3CC[C@]12C [progesterone]	–	–	27 fold
